PubChem BioAssay (NCI)
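Five compound concentrations were applied to cells in 96-well plates for 48 hours; endpoints were derived by simple linear interpolation of the resulting dose-response curve. TGI denotes the concentration required for complete inhibition of growth.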

Tests used:
Assay in all cases: DTP human tumour cell line panel, 48 h
CCRF-CEM leukemia = tested on: CCRF-CEM leukemia
SNB-19 CNS = tested on: SNB-19 CNS
EKVX NSCLC = tested on: EKVX NSCLC
MOLT-4 leukemia = tested on: MOLT-4 leukemia
OVCAR-8 ovarian = tested on: OVCAR-8 ovarian
TK-10 renal = tested on: TK-10 renal
M14 melanoma = tested on: M14 melanoma
RXF 393 renal = tested on: RXF 393 renal
ACHN renal = tested on: ACHN renal
SF-268 CNS = tested on: SF-268 CNS
KM20L2 colon = tested on: KM20L2 colon
MALME-3M melanoma = tested on: MALME-3M melanoma
HCT-15 colon = tested on: HCT-15 colon
NCI-H23 lung = tested on: NCI-H23 lung
SK-MEL-5 melanoma = tested on: SK-MEL-5 melanoma
SN12C renal = tested on: SN12C renal
UACC-62 melanoma = tested on: UACC-62 melanoma
M19-MEL melanoma = tested on: M19-MEL melanoma
DMS 114 small cell lung = tested on: DMS 114 small cell lung
A549 NSCLC = tested on: A549 NSCLC
LOX IMVI melanoma = tested on: LOX IMVI melanoma
K-562 leukemia = tested on: K-562 leukemia
HL-60(TB) leukemia = tested on: HL-60(TB) leukemia
OVCAR-4 ovarian = tested on: OVCAR-4 ovarian
HOP-18 NSCLC = tested on: HOP-18 NSCLC
RXF-631 renal = tested on: RXF-631 renal
SNB-78 CNS = tested on: SNB-78 CNS
OVCAR-5 ovarian = tested on: OVCAR-5 ovarian
RPMI-8226 leukemia = tested on: RPMI-8226 leukemia
A498 renal = tested on: A498 renal
COLO 205 colon = tested on: COLO 205 colon
KM12 colon = tested on: KM12 colon
SW-620 colon = tested on: SW-620 colon
UACC-257 melanoma = tested on: UACC-257 melanoma
SF-295 CNS = tested on: SF-295 CNS
OVCAR-3 ovarian = tested on: OVCAR-3 ovarian
786-0 renal = tested on: 786-0 renal
CAKI-1 renal = tested on: CAKI-1 renal
XF 498 CNS = tested on: XF 498 CNS
SK-OV-3 ovarian = tested on: SK-OV-3 ovarian
U251 CNS = tested on: U251 CNS
DLD-1 colon = tested on: DLD-1 colon
NCI-H460 lung = tested on: NCI-H460 lung
LXFL 529 NSCLC = tested on: LXFL 529 NSCLC
DMS 273 small cell lung = tested on: DMS 273 small cell lung
SK-MEL-2 melanoma = tested on: SK-MEL-2 melanoma
HT29 colon = tested on: HT29 colon
HCT-116 colon = tested on: HCT-116 colon
UO-31 renal = tested on: UO-31 renal
HOP-62 NSCLC = tested on: HOP-62 NSCLC
IGROV1 ovarian = tested on: IGROV1 ovarian
SNB-75 CNS = tested on: SNB-75 CNS
SF-539 CNS = tested on: SF-539 CNS
HCC-2998 colon = tested on: HCC-2998 colon

With `CC(C)(C)[Si](C)(C)O/N=C\c1ccc(O[Si](C)(C)C(C)(C)C)cc1` the TGI (CCRF-CEM leukemia) was > 100 µM, the TGI (SNB-19 CNS) was > 100 µM and the TGI (EKVX NSCLC) was > 100 µM. For the same compound, the TGI (MOLT-4 leukemia) was > 100 µM, the TGI (OVCAR-8 ovarian) was > 100 µM and the TGI (TK-10 renal) was > 100 µM. The TGI (M14 melanoma) was > 100 µM, the TGI (RXF 393 renal) was 63.7 µM and the TGI (ACHN renal) was > 100 µM. The TGI (SF-268 CNS) was > 100 µM, the TGI (KM20L2 colon) was > 100 µM and the TGI (MALME-3M melanoma) was > 100 µM. For the same compound, the TGI (HCT-15 colon) was > 100 µM, the TGI (NCI-H23 lung) was > 100 µM and the TGI (SK-MEL-5 melanoma) was > 100 µM. The TGI (SN12C renal) was > 100 µM, the TGI (UACC-62 melanoma) was > 100 µM and the TGI (M19-MEL melanoma) was > 100 µM. For the same compound, the TGI (DMS 114 small cell lung) was 75.3 µM, the TGI (A549 NSCLC) was > 100 µM and the TGI (LOX IMVI melanoma) was 40.1 µM. For the same compound, the TGI (K-562 leukemia) was > 100 µM, the TGI (HL-60(TB) leukemia) was > 100 µM and the TGI (OVCAR-4 ovarian) was > 100 µM. The TGI (HOP-18 NSCLC) was > 100 µM, the TGI (RXF-631 renal) was 53.5 µM and the TGI (SNB-78 CNS) was > 100 µM. The TGI (OVCAR-5 ovarian) was > 100 µM, the TGI (RPMI-8226 leukemia) was > 100 µM and the TGI (A498 renal) was > 100 µM. The TGI (COLO 205 colon) was > 100 µM, the TGI (KM12 colon) was > 100 µM and the TGI (SW-620 colon) was > 100 µM. The TGI (UACC-257 melanoma) was > 100 µM, the TGI (SF-295 CNS) was > 100 µM and the TGI (OVCAR-3 ovarian) was 50.9 µM. For the same compound, the TGI (786-0 renal) was > 100 µM, the TGI (CAKI-1 renal) was > 100 µM and the TGI (XF 498 CNS) was 83 µM. For the same compound, the TGI (SK-OV-3 ovarian) was > 100 µM, the TGI (U251 CNS) was 61.7 µM and the TGI (DLD-1 colon) was > 100 µM. The TGI (NCI-H460 lung) was > 100 µM, the TGI (LXFL 529 NSCLC) was > 100 µM and the TGI (DMS 273 small cell lung) was > 100 µM. For the same compound, the TGI (SK-MEL-2 melanoma) was > 100 µM, the TGI (HT29 colon) was > 100 µM and the TGI (HCT-116 colon) was 63 µM. The TGI (UO-31 renal) was > 100 µM, the TGI (HOP-62 NSCLC) was > 100 µM and the TGI (IGROV1 ovarian) was > 100 µM. The TGI (SNB-75 CNS) was > 100 µM, the TGI (SF-539 CNS) was > 100 µM and the TGI (HCC-2998 colon) was > 100 µM.
